Data reported in patent publication US12077503B2, “Substituted cyclic amides and their use as herbicides” (FMC CORPORATION, priority 2015, dated 2024).

Assays:
Format in all cases: in vivo
[1] = test system: barnyardgrass (Echinochloa crus-galli); experiment: Test G Pre-Emergence Protocol; conditions: Echinochloa crus-galli, pre-emergence, 312 h, evaluated after 13 days
Outline: (§1)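 Pots of seeds in standard soil were grown for one day in a glasshouse (24/16 °C day/night, 14 h light, 65% humidity), then sprayed with compound in acetone/water 50:50 with 0.5% Tween 20 at 15.625, 62.5 or 250 g/ha. Damage was scored after 13 days on a 0 (none) to 100 (total) scale.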

corn (Zea mays) [2] = experiment: Test G Pre-Emergence Protocol; conditions: Zea mays, pre-emergence, 312 h, evaluated after 13 days
Outline: as §1

[3] = test system: giant foxtail (Setaria faberi); experiment: Test G Pre-Emergence Protocol; conditions: Setaria faberi, pre-emergence, 312 h, evaluated after 13 days
Outline: as §1

[4] = test system: ivy-leaved morning glory (Ipomoea hederacea); experiment: Test G Pre-Emergence Protocol; conditions: Ipomoea, pre-emergence, 312 h, evaluated after 13 days
Outline: as §1

[5] = test system: redroot pigweed (Amaranthus retroflexus); experiment: Test G Pre-Emergence Protocol; conditions: Amaranthus retroflexus, pre-emergence, 312 h, evaluated after 13 days
Outline: as §1

[6] = test system: velvetleaf (Abutilon theophrasti); experiment: Test G Pre-Emergence Protocol; conditions: Abutilon theophrasti, pre-emergence, 312 h, evaluated after 13 days
Outline: as §1

[7] = test system: barnyardgrass (Echinochloa crus-galli); experiment: Test G Post-Emergence Protocol; conditions: Echinochloa crus-galli, post-emergence, 312 h
Outline: (§2)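 A glasshouse post-emergence test: 8-day-old plants sprayed at 15.625, 62.5 or 250 g/ha, then grown at 24/16 °C day/night with 14 h light and 65% humidity. Damage rated 13 days later, 0–100.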

corn (Zea mays) [8] = experiment: Test G Post-Emergence Protocol; conditions: Zea mays, post-emergence, 312 h
Outline: as §2

[9] = test system: giant foxtail (Setaria faberi); experiment: Test G Post-Emergence Protocol; conditions: Setaria faberi, post-emergence, 312 h
Outline: as §2

[10] = test system: ivy-leaved morning glory (Ipomoea hederacea); experiment: Test G Post-Emergence Protocol; conditions: Ipomoea, post-emergence, 312 h
Outline: as §2

[11] = test system: redroot pigweed (Amaranthus retroflexus); experiment: Test G Post-Emergence Protocol; conditions: Amaranthus retroflexus, post-emergence, 312 h
Outline: as §2

[12] = test system: velvetleaf (Abutilon theophrasti); experiment: Test G Post-Emergence Protocol; conditions: Abutilon theophrasti, post-emergence, 312 h
Outline: as §2

SMILES: C=C(C)c1ccccc1NC(=O)[C@H]1C(=O)N(C)C[C@@H]1c1ccc(C(F)(F)F)cc1 (racemic) [Compound 1449]
- pest or weed control at 15.625 g/ha ([1]; 15.625 g ai/ha, read-out: Barnyard grass damage rating (100=total damage to plant; 0=no damage to plant)): 0%
- pest or weed control at 62.5 g/ha ([1]; 62.5 g ai/ha, 100=total damage to plant, 0=no damage to plant, read-out: plant damage rating, Barnyardgrass): 0%
- pest or weed control at 250 g/ha ([1]; 250 g ai/ha, read-out: Barnyardgrass damage rating (100=total damage to plant; 0=no damage to plant)): 30%
- plant injury at 15.625 g/ha (corn (Zea mays) [2]; 15.625 g ai/ha, read-out: Corn damage rating (100=total damage to plant; 0=no damage to plant)): 0%
- plant injury at 62.5 g/ha (corn (Zea mays) [2]; 62.5 g ai/ha, 100=total damage to plant, 0=no damage to plant, read-out: plant damage rating, Corn): 0%
- plant injury at 250 g/ha (corn (Zea mays) [2]; 250 g ai/ha, read-out: Corn damage rating (100=total damage to plant; 0=no damage to plant)): 0%
- pest or weed control at 15.625 g/ha ([3]; 15.625 g ai/ha, read-out: Foxtail, Giant damage rating (100=total damage to plant; 0=no damage to plant)): 10%
- pest or weed control at 62.5 g/ha ([3]; 62.5 g ai/ha, 100=total damage to plant, 0=no damage to plant, read-out: plant damage rating, Foxtail, Giant): 70%
- pest or weed control at 250 g/ha ([3]; 250 g ai/ha, read-out: Foxtail, Giant damage rating (100=total damage to plant; 0=no damage to plant)): 80%
- pest or weed control at 15.625 g/ha ([4]; 15.625 g ai/ha, read-out: Morning-glory, Ivy-leaved damage rating (100=total damage to plant; 0=no damage to plant)): 0%
- pest or weed control at 62.5 g/ha ([4]; 62.5 g ai/ha, 100=total damage to plant, 0=no damage to plant, read-out: plant damage rating, Morningglory, Ivy-leaved): 0%
- pest or weed control at 250 g/ha ([4]; 250 g ai/ha, read-out: Morningglory, Ivy-leaved damage rating (100=total damage to plant; 0=no damage to plant)): 0%
- pest or weed control at 15.625 g/ha ([5]; 15.625 g ai/ha, read-out: Pigweed, Redroot damage rating (100=total damage to plant; 0=no damage to plant)): 0%
- pest or weed control at 62.5 g/ha ([5]; 62.5 g ai/ha, 100=total damage to plant, 0=no damage to plant, read-out: plant damage rating, Pigweed, Redroot): 0%
- pest or weed control at 250 g/ha ([5]; 250 g ai/ha, read-out: Pigweed, Redroot damage rating (100=total damage to plant; 0=no damage to plant)): 0%
- pest or weed control at 15.625 g/ha ([6]; 15.625 g ai/ha, read-out: Velvetleaf damage rating (100=total damage to plant; 0=no damage to plant)): 0%
- pest or weed control at 62.5 g/ha ([6]; 62.5 g ai/ha, 100=total damage to plant, 0=no damage to plant, read-out: plant damage rating, Velvetleaf): 0%
- pest or weed control at 250 g/ha ([6]; 250 g ai/ha, read-out: Velvetleaf damage rating (100=total damage to plant; 0=no damage to plant)): 0%
- pest or weed control at 15.625 g/ha ([7]; 15.625 g ai/ha, evaluated after 13 days (100=total damage to plant; 0=no damage to plant), read-out: Barnyardgrass damage rating): 0%
- pest or weed control at 62.5 g/ha ([7]; 62.5 g ai/ha, evaluated after 13 days, read-out: Barnyardgrass damage rating (100=total damage to plant; 0=no damage to plant)): 10%
- pest or weed control at 250 g/ha ([7]; 250 g ai/ha, evaluated after 13 days, read-out: damage to plant, Barnyardgrass (100=total damage to plant; 0=no damage to plant)): 30%
- plant injury at 15.625 g/ha (corn (Zea mays) [8]; 15.625 g ai/ha, evaluated after 13 days (100=total damage to plant; 0=no damage to plant), read-out: Corn damage rating): 0%
- plant injury at 62.5 g/ha (corn (Zea mays) [8]; 62.5 g ai/ha, evaluated after 13 days, read-out: Corn damage rating (100=total damage to plant; 0=no damage to plant)): 0%
- plant injury at 250 g/ha (corn (Zea mays) [8]; 250 g ai/ha, evaluated after 13 days, read-out: damage to plant, Corn (100=total damage to plant; 0=no damage to plant)): 10%
- pest or weed control at 15.625 g/ha ([9]; 15.625 g ai/ha, evaluated after 13 days (100=total damage to plant; 0=no damage to plant), read-out: Foxtail, Giant damage rating): 0%
- pest or weed control at 62.5 g/ha ([9]; 62.5 g ai/ha, evaluated after 13 days, read-out: Foxtail, Giant damage rating (100=total damage to plant; 0=no damage to plant)): 20%
- pest or weed control at 250 g/ha ([9]; 250 g ai/ha, evaluated after 13 days, read-out: damage to plant, Foxtail, Giant (100=total damage to plant; 0=no damage to plant)): 60%
- pest or weed control at 15.625 g/ha ([10]; 15.625 g ai/ha, evaluated after 13 days (100=total damage to plant; 0=no damage to plant), read-out: Morningglory, Ivy-leaved damage rating): 0%
- pest or weed control at 62.5 g/ha ([10]; 62.5 g ai/ha, evaluated after 13 days, read-out: Morningglory, Ivy-leaved damage rating (100=total damage to plant; 0=no damage to plant)): 0%
- pest or weed control at 250 g/ha ([10]; 250 g ai/ha, evaluated after 13 days, read-out: damage to plant, Morningglory, Ivy-leaved (100=total damage to plant; 0=no damage to plant)): 10%
- pest or weed control at 15.625 g/ha ([11]; 15.625 g ai/ha, evaluated after 13 days (100=total damage to plant; 0=no damage to plant), read-out: Pigweed, Redroot damage rating): 0%
- pest or weed control at 62.5 g/ha ([11]; 62.5 g ai/ha, evaluated after 13 days, read-out: Pigweed, Redroot damage rating (100=total damage to plant; 0=no damage to plant)): 0%
- pest or weed control at 250 g/ha ([11]; 250 g ai/ha, evaluated after 13 days, read-out: damage to plant, Pigweed, Redroot (100=total damage to plant; 0=no damage to plant)): 30%
- pest or weed control at 15.625 g/ha ([12]; 15.625 g ai/ha, evaluated after 13 days (100=total damage to plant; 0=no damage to plant), read-out: Velvetleaf damage rating): 0%
- pest or weed control at 62.5 g/ha ([12]; 62.5 g ai/ha, evaluated after 13 days, read-out: Velvetleaf damage rating (100=total damage to plant; 0=no damage to plant)): 0%
- pest or weed control at 250 g/ha ([12]; 250 g ai/ha, evaluated after 13 days, read-out: damage to plant, Velvetleaf (100=total damage to plant; 0=no damage to plant)): 0%
